Data taken from ChEMBL document CHEMBL2203210, “SAR and in vivo evaluation of 4-aryl-2-aminoalkylpyrimidines as potent and selective Janus kinase 2 (JAK2) inhibitors” (Bioorg Med Chem Lett, 2012).
pIC50: −log10 of the molar value.

How the values were obtained:
[1] = target: Inhibitor of nuclear factor kappa-B kinase subunit beta (Homo sapiens, UniProt O14920); assay: Inhibition of IKKbeta
[2] = test system: Mus musculus; assay: Inhibition of JAK2 in HEL 92.1.7 cells xenografted in po dosed nude mouse assessed as inhibition of STAT3 phosphorylation after 4 hrs; type: functional, organism-based
[3] = test system: Mus musculus; assay: Inhibition of JAK2 in HEL 92.1.7 cells xenografted in nude mouse assessed as inhibition of STAT3 phosphorylation at 100 mg/kg, po after 4 hrs relative to vehicle-treated control; type: functional
[4] = target: T1, Tyrosine-protein kinase JAK3 (Homo sapiens, UniProt P52333)
T1 sequence (P52333 whole entry): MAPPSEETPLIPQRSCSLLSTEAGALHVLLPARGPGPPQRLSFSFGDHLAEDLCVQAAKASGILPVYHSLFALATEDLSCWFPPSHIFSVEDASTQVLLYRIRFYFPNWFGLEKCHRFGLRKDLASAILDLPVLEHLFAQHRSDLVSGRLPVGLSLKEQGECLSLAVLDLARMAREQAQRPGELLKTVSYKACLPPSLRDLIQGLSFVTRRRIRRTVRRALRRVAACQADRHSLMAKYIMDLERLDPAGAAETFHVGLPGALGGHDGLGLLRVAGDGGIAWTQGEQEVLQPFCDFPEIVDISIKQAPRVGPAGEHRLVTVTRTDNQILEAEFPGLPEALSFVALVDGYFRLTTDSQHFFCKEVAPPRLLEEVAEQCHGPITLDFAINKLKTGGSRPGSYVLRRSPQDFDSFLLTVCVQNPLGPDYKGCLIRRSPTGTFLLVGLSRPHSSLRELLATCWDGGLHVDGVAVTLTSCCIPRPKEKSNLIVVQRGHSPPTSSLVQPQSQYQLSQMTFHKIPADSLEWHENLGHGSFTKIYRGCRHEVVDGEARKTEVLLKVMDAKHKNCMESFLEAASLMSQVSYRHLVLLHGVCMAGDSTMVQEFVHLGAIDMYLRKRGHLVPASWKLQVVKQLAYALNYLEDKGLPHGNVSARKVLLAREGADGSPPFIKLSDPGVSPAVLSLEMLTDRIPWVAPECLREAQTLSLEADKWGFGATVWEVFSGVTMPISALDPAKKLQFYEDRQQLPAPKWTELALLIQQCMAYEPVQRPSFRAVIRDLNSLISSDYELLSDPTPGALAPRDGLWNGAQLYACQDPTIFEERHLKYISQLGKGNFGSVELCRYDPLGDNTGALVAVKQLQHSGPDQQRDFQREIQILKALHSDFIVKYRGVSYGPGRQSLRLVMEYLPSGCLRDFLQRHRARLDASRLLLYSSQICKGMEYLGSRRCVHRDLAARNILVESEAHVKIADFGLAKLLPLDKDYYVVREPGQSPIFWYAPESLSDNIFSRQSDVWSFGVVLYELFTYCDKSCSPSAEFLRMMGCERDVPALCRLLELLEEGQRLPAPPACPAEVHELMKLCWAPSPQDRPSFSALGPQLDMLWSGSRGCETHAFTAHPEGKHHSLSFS

[5] = test system: Mus musculus; assay: Inhibition of JAK2 in HEL 92.1.7 cells xenografted in nude mouse assessed as inhibition of STAT1 phosphorylation at 100 mg/kg, po after 4 hrs relative to vehicle-treated control; type: functional
[6] = Cmax in CD rat at 5 mg/kg, iv; type: ADME, organism-based; set-up: dose 5 mg/kg, route intravenous; conditions: in vivo
[7] = target: Vascular endothelial growth factor receptor 3 (Homo sapiens, UniProt P35916); assay: Inhibition of FLT4
Chain of Vascular endothelial growth factor receptor 3 (P35916 whole entry): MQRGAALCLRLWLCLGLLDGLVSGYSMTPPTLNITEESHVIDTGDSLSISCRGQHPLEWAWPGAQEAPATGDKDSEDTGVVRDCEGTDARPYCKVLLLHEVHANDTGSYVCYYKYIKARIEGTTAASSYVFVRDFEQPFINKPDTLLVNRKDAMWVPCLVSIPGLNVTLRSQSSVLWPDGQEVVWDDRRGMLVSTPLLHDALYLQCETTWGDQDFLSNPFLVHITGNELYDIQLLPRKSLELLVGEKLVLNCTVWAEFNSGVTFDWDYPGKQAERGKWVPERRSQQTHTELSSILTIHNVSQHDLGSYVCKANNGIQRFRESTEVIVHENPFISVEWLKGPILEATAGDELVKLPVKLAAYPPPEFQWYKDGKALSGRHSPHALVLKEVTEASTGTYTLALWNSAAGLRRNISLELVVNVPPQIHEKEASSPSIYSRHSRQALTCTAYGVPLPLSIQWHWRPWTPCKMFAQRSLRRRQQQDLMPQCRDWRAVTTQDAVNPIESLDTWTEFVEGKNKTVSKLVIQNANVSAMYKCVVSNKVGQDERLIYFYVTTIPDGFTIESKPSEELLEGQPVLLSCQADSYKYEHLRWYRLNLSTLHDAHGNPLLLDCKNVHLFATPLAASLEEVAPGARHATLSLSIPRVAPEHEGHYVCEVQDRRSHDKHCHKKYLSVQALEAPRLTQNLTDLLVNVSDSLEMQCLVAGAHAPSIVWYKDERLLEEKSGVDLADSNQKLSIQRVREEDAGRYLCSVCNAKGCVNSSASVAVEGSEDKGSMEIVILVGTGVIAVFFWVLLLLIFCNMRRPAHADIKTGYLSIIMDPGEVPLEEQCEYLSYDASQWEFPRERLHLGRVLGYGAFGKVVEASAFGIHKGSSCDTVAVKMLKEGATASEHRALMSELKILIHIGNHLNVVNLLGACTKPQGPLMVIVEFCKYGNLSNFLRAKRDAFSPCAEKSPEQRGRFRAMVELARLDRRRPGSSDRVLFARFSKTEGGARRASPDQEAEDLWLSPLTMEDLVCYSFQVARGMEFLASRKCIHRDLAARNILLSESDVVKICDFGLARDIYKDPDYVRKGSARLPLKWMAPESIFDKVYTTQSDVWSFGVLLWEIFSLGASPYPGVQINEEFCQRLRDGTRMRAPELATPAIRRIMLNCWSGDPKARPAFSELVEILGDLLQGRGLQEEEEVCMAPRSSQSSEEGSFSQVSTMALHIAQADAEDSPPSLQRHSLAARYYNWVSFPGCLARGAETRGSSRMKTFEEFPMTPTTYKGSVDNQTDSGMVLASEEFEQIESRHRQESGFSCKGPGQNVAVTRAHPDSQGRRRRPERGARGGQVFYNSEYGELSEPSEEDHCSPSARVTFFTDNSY

[8] = test system: Rattus norvegicus; assay: Dose normalized AUC in CD rat at 5 mg/kg, iv; type: ADME, organism-based; set-up: dose 5 mg/kg, route intravenous; conditions: in vivo
[9] = Drug uptake in nude mouse xenografted with HEL 92.1.7 cells at 30 mg/kg, po after 4 hrs; type: ADME, organism-based; set-up: dose 30 mg/kg, route oral; conditions: in vivo, read-out: Drug uptake
[10] = Half life in athymic nude mouse at 10 mg/kg, iv; type: ADME, organism-based; set-up: dose 10 mg/kg, route intravenous; conditions: in vivo
[11] = test system: Mus musculus; assay: Inhibition of JAK2 in HEL 92.1.7 cells xenografted in nude mouse assessed as inhibition of STAT1 phosphorylation at 300 mg/kg, po after 4 hrs relative to vehicle-treated control; type: functional
[12] = target: Mitogen-activated protein kinase kinase kinase 9 (Homo sapiens, UniProt P80192); assay: Inhibition of MLK1
Chain of Mitogen-activated protein kinase kinase kinase 9 (P80192 whole entry): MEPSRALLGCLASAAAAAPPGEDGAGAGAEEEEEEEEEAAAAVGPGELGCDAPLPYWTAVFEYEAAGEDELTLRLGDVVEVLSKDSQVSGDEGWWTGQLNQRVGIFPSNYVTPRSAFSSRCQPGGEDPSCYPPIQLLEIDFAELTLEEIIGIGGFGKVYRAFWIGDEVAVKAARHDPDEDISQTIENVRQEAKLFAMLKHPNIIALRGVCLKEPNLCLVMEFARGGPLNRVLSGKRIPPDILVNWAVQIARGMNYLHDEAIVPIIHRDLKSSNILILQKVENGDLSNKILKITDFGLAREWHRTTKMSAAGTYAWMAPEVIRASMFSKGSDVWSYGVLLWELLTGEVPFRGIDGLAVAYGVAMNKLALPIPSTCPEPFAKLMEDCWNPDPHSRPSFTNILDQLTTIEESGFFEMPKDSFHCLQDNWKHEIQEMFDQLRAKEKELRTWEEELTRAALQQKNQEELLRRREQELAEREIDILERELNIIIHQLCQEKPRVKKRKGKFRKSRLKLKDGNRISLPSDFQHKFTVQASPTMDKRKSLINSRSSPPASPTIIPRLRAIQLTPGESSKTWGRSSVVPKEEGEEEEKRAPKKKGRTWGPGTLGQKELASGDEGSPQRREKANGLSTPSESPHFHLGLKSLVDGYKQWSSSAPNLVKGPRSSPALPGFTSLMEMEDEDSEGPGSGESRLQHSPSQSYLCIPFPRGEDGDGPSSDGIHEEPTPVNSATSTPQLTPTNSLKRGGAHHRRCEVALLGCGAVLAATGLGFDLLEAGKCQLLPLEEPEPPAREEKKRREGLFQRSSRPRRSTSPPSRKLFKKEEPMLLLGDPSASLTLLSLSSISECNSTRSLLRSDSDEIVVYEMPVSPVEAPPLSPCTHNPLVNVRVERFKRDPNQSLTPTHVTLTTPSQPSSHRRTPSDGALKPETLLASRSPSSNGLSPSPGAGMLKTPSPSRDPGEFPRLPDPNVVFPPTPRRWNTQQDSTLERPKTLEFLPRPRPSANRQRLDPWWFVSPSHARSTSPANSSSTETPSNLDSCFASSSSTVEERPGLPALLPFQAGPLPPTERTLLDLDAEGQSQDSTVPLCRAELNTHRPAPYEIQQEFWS

[13] = target: Platelet-derived growth factor receptor alpha (Homo sapiens, UniProt P16234); assay: Inhibition of PDGFRA
Chain of Platelet-derived growth factor receptor alpha (P16234 whole entry): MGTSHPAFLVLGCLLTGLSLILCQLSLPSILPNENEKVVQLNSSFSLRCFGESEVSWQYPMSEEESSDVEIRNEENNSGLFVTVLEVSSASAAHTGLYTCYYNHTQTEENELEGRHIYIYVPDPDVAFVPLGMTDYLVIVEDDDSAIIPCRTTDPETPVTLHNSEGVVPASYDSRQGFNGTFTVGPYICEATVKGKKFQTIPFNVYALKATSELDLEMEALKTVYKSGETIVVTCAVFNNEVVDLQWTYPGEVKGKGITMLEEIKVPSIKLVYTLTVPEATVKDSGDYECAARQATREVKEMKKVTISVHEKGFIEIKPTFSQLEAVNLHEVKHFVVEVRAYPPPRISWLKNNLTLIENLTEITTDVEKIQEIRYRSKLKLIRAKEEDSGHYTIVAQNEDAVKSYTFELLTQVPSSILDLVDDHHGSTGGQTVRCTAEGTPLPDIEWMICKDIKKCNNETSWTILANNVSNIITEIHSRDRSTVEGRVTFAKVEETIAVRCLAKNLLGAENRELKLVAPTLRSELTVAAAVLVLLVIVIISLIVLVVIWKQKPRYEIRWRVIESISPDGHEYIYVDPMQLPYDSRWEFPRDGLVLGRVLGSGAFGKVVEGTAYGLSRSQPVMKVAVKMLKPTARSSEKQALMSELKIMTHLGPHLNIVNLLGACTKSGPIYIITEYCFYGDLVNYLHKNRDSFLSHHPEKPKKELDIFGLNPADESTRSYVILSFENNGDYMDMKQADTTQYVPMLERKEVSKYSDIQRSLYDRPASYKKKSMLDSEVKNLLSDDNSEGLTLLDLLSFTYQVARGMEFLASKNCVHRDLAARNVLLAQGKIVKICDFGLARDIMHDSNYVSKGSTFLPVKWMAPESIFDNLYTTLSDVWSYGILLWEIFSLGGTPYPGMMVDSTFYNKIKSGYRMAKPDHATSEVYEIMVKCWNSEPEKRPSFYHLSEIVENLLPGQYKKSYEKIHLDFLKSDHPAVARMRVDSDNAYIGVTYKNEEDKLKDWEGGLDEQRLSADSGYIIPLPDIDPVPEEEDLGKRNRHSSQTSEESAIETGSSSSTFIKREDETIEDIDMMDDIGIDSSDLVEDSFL

[14] = Plasma concentration in nude mouse xenografted with HEL 92.1.7 cells at 100 mg/kg, po after 4 hrs; type: ADME, organism-based; set-up: dose 100 mg/kg, route oral
[15] = Oral bioavailability in CD rat at 5 mg/kg; type: ADME, organism-based; conditions: in vivo
[16] = target: Platelet-derived growth factor receptor beta (Homo sapiens, UniProt P09619); assay: Inhibition of PDGFRB

Chain of Inhibitor of nuclear factor kappa-B kinase subunit beta (O14920 whole entry): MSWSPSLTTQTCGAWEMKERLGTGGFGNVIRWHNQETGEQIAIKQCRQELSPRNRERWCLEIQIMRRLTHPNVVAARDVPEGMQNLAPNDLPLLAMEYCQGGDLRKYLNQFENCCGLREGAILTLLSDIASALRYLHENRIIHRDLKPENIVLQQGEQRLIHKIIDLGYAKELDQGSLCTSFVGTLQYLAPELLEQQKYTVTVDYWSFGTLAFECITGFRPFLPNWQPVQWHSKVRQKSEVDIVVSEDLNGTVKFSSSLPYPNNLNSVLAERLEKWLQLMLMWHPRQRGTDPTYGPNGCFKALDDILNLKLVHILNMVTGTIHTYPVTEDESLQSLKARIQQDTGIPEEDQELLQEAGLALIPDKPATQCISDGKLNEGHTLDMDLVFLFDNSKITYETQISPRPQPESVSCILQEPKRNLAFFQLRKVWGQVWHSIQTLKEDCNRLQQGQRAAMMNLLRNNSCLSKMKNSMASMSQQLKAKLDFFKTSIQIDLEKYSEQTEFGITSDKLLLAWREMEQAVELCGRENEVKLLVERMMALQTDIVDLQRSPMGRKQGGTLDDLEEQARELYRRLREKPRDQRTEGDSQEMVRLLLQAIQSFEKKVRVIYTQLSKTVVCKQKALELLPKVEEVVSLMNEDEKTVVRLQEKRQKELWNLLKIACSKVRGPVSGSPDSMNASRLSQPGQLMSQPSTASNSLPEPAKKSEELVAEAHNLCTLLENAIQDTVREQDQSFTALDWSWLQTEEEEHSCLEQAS

pIC50 [1]: 6.43
pIC50 [2]: 4.89
pIC50 [4]: 6.67
Cmax [6]: 13 µM
pIC50 [7]: 6.26
AUC/dose [8]: 15.99 µM·kg·h/mg
concentration at 4 h [9]: 2 µM
half-life [10]: 1.13 h
pIC50 [12]: 6.43
pIC50 [13]: 6.26
concentration at 4 h [14]: 5.35 µM
bioavailability [15]: 53.6%
pIC50 [16]: 6.90
Compound: O=C(Nc1ccc(-c2ccnc(Nc3ccc(N4CCOCC4)cc3)n2)cc1)[C@H]1CCCN1
ED50 ([2]; po): 210 mg/kg
inhibition in vivo at 100 mg/kg [3]: 40%
inhibition in vivo at 100 mg/kg [5]: 72%
inhibition in vivo at 300 mg/kg [11]: 88%
